Literature values as cited in paper PMC10071776, “Binding proteins of destruxin A from Metarhizium against insect cell” (BMC Microbiology, 2023).
Where a SMILES comes first, the peptide text is derived from it. [ ]: non-standard residue; d: D form. dLac(3-vinyl) = C=CC[C@@H](O)C(=O)O; NMeV = CN[C@H](C(=O)O)C(C)C; NMeA = CN[C@@H](C)C(=O)O; βAla = NCCC(=O)O

Tests used:
[1] = stated in SPR method; no measurement described, no reference given
hemocyte ATPase = settings: higher than DA; ref [13]
From the text: (§1) The multi-target strategy of destruxin has resulted from the evolution of interactions between Metarhizium spp. and insects. When Metarhizium spp. invades a host insect, it secretes a variety of structurally similar destruxins that attack as many tissues and organs. These produce a diseased state, weakening insect resistance and enabling successfully fungus colonization.

insects = settings: no reference given
From the text: as §1

tumor = settings: no reference given
From the text: as §1

Molecule | solubility in water [1] | affinity of DB relative to DA (hemocyte ATPase) | insecticidal activity relative to DA (insects) | antitumor activity relative to DA (tumor)
C=CC[C@H]1OC(=O)CCNC(=O)[C@H](C)N(C)C(=O)[C@H](C(C)C)N(C)C(=O)[C@H]([C@@H](C)CC)NC(=O)[C@@H]2CCCN2C1=O [DA, Destruxin A] (cyclo(I[NMeV][NMeA][βAla][dLac(3-vinyl)]P)) | insoluble in water |  |  | 
destruxin B [DB] |  | 100 times | lower insecticidal activity than DA | greater antitumor activity than DA
